# Data reported in ChEMBL document CHEMBL1201861, “Genomics of Drug Sensitity in Cancer screening data, Wellcome Trust Sanger Institute”.
# Assays:
# S-117 = assay: cells; format: functional, cell-based; conditions: Homo sapiens
# Description: SANGER: Inhibition of human S-117 cell growth in a cell viability assay.
# CAL-62 = assay: cells; format: functional, cell-based; conditions: Homo sapiens;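 also: growth inhibition of CAL-62 cells, read out with a cell viability assay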
# Description: SANGER: Inhibition of human CAL-62 cell growth in a cell viability assay.
# SW1088 = assay: cells; format: functional, cell-based; conditions: Homo sapiens;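 also: growth inhibition of human SW1088 cells, read out by a cell viability assay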
# Description: SANGER: Inhibition of human SW1088 cell growth in a cell viability assay.
# CAL-54 = assay: cells; format: functional, cell-based; conditions: Homo sapiens;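 also: growth inhibition of CAL-54 cells, read out by a viability measurement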
# Description: SANGER: Inhibition of human CAL-54 cell growth in a cell viability assay.
# NCI-H1651 = assay: cells; format: functional, cell-based; conditions: Homo sapiens;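 also: Read-out is a cell viability assay, with IC50 expressing inhibition of NCI-H1651 cell growth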
# Description: SANGER: Inhibition of human NCI-H1651 cell growth in a cell viability assay.
# Hs-578T = assay: cells; format: functional, cell-based; conditions: Homo sapiens
# Description: SANGER: Inhibition of human Hs-578-T cell growth in a cell viability assay.
# G-401 = assay: cells; format: functional, cell-based; conditions: Homo sapiens
# Description: SANGER: Inhibition of human G-401 cell growth in a cell viability assay.
# SW1463 = assay: cells; format: functional, cell-based; conditions: Homo sapiens;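 also: growth inhibition of SW1463 cells, determined with a cell viability assay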
# Description: SANGER: Inhibition of human SW1463 cell growth in a cell viability assay.
# NB12 = assay: cells; format: functional, cell-based; conditions: Homo sapiens;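 also: growth inhibition of human NB12 cells, read out by a cell viability assay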
# Description: SANGER: Inhibition of human NB12 cell growth in a cell viability assay.
# BFTC-909 = assay: cells; format: functional, cell-based; conditions: Homo sapiens
# Description: SANGER: Inhibition of human BFTC-909 cell growth in a cell viability assay.
# ASPC1 = assay: cells; format: functional, cell-based; conditions: Homo sapiens;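 also: growth inhibition of AsPC-1 cells, read out with a cell viability assay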
# Description: SANGER: Inhibition of human AsPC-1 cell growth in a cell viability assay.
# HCC1395 = assay: cells; format: functional, cell-based; conditions: Homo sapiens;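 also: growth inhibition of HCC1395 cells, read out by a cell viability assay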
# Description: SANGER: Inhibition of human HCC1395 cell growth in a cell viability assay.
# HCC1937 = assay: cells; format: functional, cell-based; conditions: Homo sapiens;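 also: growth inhibition measured with a cell viability read-out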
# Description: SANGER: Inhibition of human HCC1937 cell growth in a cell viability assay.
# M059J = assay: cells; format: functional, cell-based; conditions: Homo sapiens;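 also: growth inhibition of M059J cells, read out with a cell viability assay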
# Description: SANGER: Inhibition of human M059J cell growth in a cell viability assay.
# MDA-MB-175-VII = assay: cells; format: functional, cell-based; conditions: Homo sapiens
# COLO-680N = assay: cells; format: functional, cell-based; conditions: Homo sapiens;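 also: cell viability assay used to measure inhibition of COLO-680N cell growth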
# Description: SANGER: Inhibition of human COLO-680N cell growth in a cell viability assay.
# MDA-MB-157 = assay: cells; format: functional, cell-based; conditions: Homo sapiens
# Description: SANGER: Inhibition of human MDA-MB-157 cell growth in a cell viability assay.
# U2OS = assay: cells; format: functional, cell-based, U-2-OS; conditions: Homo sapiens;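 also: growth inhibition of human U-2-OS cells, determined with a cell viability assay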
# Description: SANGER: Inhibition of human U-2-OS cell growth in a cell viability assay.
# AN3-CA = assay: cells; format: functional, cell-based; conditions: Homo sapiens;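 also: growth inhibition of human AN3-CA cells measured by a cell viability assay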
# Description: SANGER: Inhibition of human AN3-CA cell growth in a cell viability assay.
# NY = assay: cells; format: functional, cell-based; conditions: Homo sapiens
# Description: SANGER: Inhibition of human NY cell growth in a cell viability assay.
# OVCAR-5 = assay: cells; format: functional, cell-based; conditions: Homo sapiens;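 also: growth inhibition of human OVCAR-5 cells, read out with a cell viability assay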
# Description: SANGER: Inhibition of human OVCAR-5 cell growth in a cell viability assay.
# ChaGo-K-1 = assay: cells; format: functional, cell-based; conditions: Homo sapiens;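 also: growth inhibition of ChaGo-K-1 cells, read out with a cell viability assay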
# Description: SANGER: Inhibition of human ChaGo-K-1 cell growth in a cell viability assay.
# IGROV-1 = assay: cells; format: functional, cell-based; conditions: Homo sapiens;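 also: reduction of IGROV-1 cell growth, read out with a viability assay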
# Description: SANGER: Inhibition of human IGROV-1 cell growth in a cell viability assay.
# NCI-H810 = assay: cells; format: functional, cell-based; conditions: Homo sapiens;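 also: IC50 reflects inhibition of cancer cell line growth, read out with a cell viability assay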
# Description: SANGER: Inhibition of human NCI-H810 cell growth in a cell viability assay.
# CAL-120 = assay: cells; format: functional, cell-based; conditions: Homo sapiens;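 also: cell growth inhibition, read out as cell viability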
# Description: SANGER: Inhibition of human CAL-120 cell growth in a cell viability assay.
# SNU-387 = assay: cells; format: functional, cell-based; conditions: Homo sapiens
# Description: SANGER: Inhibition of human SNU-387 cell growth in a cell viability assay.
# NCI-H2170 = assay: cells; format: functional, cell-based; conditions: Homo sapiens;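 also: cell viability assay measuring growth inhibition of human NCI-H2170 cancer cells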
# Description: SANGER: Inhibition of human NCI-H2170 cell growth in a cell viability assay.
# NCI-H1793 = assay: cells; format: functional, cell-based; conditions: Homo sapiens;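 also: cell growth inhibition, read out by a cell viability assay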
# Description: SANGER: Inhibition of human NCI-H1793 cell growth in a cell viability assay.
# DoTc2-4510 = assay: cells; format: functional, cell-based; conditions: Homo sapiens
# CP50-MEL-B = assay: cells; format: functional, cell-based; conditions: Homo sapiens;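 also: growth inhibition of the human cell line, measured with a cell viability read-out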
# Description: SANGER: Inhibition of human CP50-MEL-B cell growth in a cell viability assay.
# RO82-W-1 = assay: cells; format: functional, cell-based; conditions: Homo sapiens;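 also: growth inhibition of human RO82-W-1 cells, measured with a cell viability assay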
# Description: SANGER: Inhibition of human RO82-W-1 cell growth in a cell viability assay.
# RT-112 = assay: cells; format: functional, cell-based; conditions: Homo sapiens
# Description: SANGER: Inhibition of human RT-112 cell growth in a cell viability assay.
# NCI-H650 = assay: cells; format: functional, cell-based; conditions: Homo sapiens;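 also: growth inhibition of NCI-H650 cells, read out by a viability assay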
# Description: SANGER: Inhibition of human NCI-H650 cell growth in a cell viability assay.
# HCC1806 = assay: cells; format: functional, cell-based; conditions: Homo sapiens;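 also: growth inhibition of the cancer cell line, determined with a cell viability assay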
# Description: SANGER: Inhibition of human HCC1806 cell growth in a cell viability assay.
# OAW-42 = assay: cells; format: functional, cell-based; conditions: Homo sapiens;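 also: growth inhibition of OAW-42 cells, read out with a cell viability assay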
# Description: SANGER: Inhibition of human OAW-42 cell growth in a cell viability assay.
# SiHa = assay: cells; format: functional, cell-based; conditions: Homo sapiens;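 also: Viability-based readout of growth inhibition in SiHa cells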
# Description: SANGER: Inhibition of human SiHa cell growth in a cell viability assay.
# NCI-H2052 = assay: cells; format: functional, cell-based; conditions: Homo sapiens;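 also: growth inhibition of NCI-H2052 cells, read out with a cell viability assay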
# Description: SANGER: Inhibition of human NCI-H2052 cell growth in a cell viability assay.
# NCI-H630 = assay: cells; format: functional, cell-based; conditions: Homo sapiens;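 also: growth inhibition of NCI-H630 cells, read out with a cell viability assay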
# Description: SANGER: Inhibition of human NCI-H630 cell growth in a cell viability assay.
# NCI-H1993 = assay: cells; format: functional, cell-based; conditions: Homo sapiens;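 also: growth inhibition of the cancer cell line, assessed with a cell viability assay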
# Description: SANGER: Inhibition of human NCI-H1993 cell growth in a cell viability assay.
# PANC-03-27 = assay: cells; format: functional, cell-based; conditions: Homo sapiens
# Description: SANGER: Inhibition of human PANC-03-27 cell growth in a cell viability assay.
# THP-1 = assay: cells; format: functional, cell-based, Homo sapiens; conditions: Homo sapiens, THP-1;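 also: growth inhibition of THP-1 cells, read out via a cell viability assay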
# Description: SANGER: Inhibition of human THP-1 cell growth in a cell viability assay.
# EHEB = assay: cells; format: functional, cell-based; conditions: Homo sapiens;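 also: growth inhibition of human EHEB cells, read out with a cell viability assay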
# Description: SANGER: Inhibition of human EHEB cell growth in a cell viability assay.
# MC-CAR = assay: cells; format: functional, cell-based, Homo sapiens; conditions: Homo sapiens, MC-CAR;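 also: growth inhibition of the human MC-CAR cell line, read out by a cell viability assay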
# Description: SANGER: Inhibition of human MC-CAR cell growth in a cell viability assay.
# TUR = assay: cells; format: functional, cell-based, Homo sapiens; conditions: Homo sapiens, TUR;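 also: growth inhibition of human TUR cells, read out with a cell viability assay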
# Description: SANGER: Inhibition of human TUR cell growth in a cell viability assay.
# RPMI-6666 = assay: cells; format: functional, cell-based, Homo sapiens; conditions: Homo sapiens, RPMI-6666
# Description: SANGER: Inhibition of human RPMI-6666 cell growth in a cell viability assay.
# LB373-MEL-D = assay: cells; format: functional, cell-based, Homo sapiens; conditions: Homo sapiens, LB373-MEL-D;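 also: growth inhibition of the cell line, read out in a cell viability assay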
# Description: SANGER: Inhibition of human LB373-MEL-D cell growth in a cell viability assay.
# DMS-153 = assay: cells; format: functional, cell-based, Homo sapiens; conditions: Homo sapiens, DMS-153
# Description: SANGER: Inhibition of human DMS-153 cell growth in a cell viability assay.
# LU-165 = assay: cells; format: functional, cell-based, Homo sapiens; conditions: Homo sapiens, LU-165
# Description: SANGER: Inhibition of human LU-165 cell growth in a cell viability assay.
# NCI-H2171 = assay: cells; format: functional, cell-based, Homo sapiens; conditions: Homo sapiens, NCI-H2171;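 also: growth inhibition of human NCI-H2171 cells, read out by a cell viability assay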
# Description: SANGER: Inhibition of human NCI-H2171 cell growth in a cell viability assay.
# WSU-NHL = assay: cells; format: functional, cell-based, Homo sapiens; conditions: Homo sapiens, WSU-NHL;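 also: growth inhibition of human WSU-NHL cells, read out with a cell viability assay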
# Description: SANGER: Inhibition of human WSU-NHL cell growth in a cell viability assay.
# MFH-ino = assay: cells; format: functional, cell-based, Homo sapiens; conditions: Homo sapiens, MFH-ino;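 also: growth inhibition of human MFH-ino cells, read out by a cell viability assay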
# Description: SANGER: Inhibition of human MFH-ino cell growth in a cell viability assay.
# IMR-5 = assay: cells; format: functional, cell-based, Homo sapiens; conditions: Homo sapiens, IMR-5; read-out: IC50;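 also: growth inhibition of human IMR-5 cells, read out with a cell viability assay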
# Description: SANGER: Inhibition of human IMR-5 cell growth in a cell viability assay.
# CAL-148 = assay: cells; format: functional, cell-based, Homo sapiens; conditions: Homo sapiens, CAL-148
# Description: SANGER: Inhibition of human CAL-148 cell growth in a cell viability assay.
# NCI-H524 = assay: cells; format: functional, cell-based, Homo sapiens; conditions: Homo sapiens, NCI-H524;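 also: growth inhibition of human NCI-H524 cells, read out through a cell viability assay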
# Description: SANGER: Inhibition of human NCI-H524 cell growth in a cell viability assay.
# MKN-1 = assay: cells; format: functional, cell-based; conditions: Homo sapiens;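 also: growth inhibition of human MKN1 cells, read out by a cell viability measurement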
# Description: SANGER: Inhibition of human MKN1 cell growth in a cell viability assay.
# SCLC-21H = assay: cells; format: functional, cell-based, Homo sapiens; conditions: Homo sapiens, SCLC-21H;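 also: growth inhibition of cultured human SCLC-21H cells, read out with a cell viability assay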
# Description: SANGER: Inhibition of human SCLC-21H cell growth in a cell viability assay.
# IM-9 = assay: SANGER: Inhibition of human IM-9 cell growth in a cell viability assay.; format: functional, cell-based; conditions: Homo sapiens, IM-9
# D-542MG = assay: cells; format: functional, cell-based; conditions: Homo sapiens
# Description: SANGER: Inhibition of human D-542MG cell growth in a cell viability assay.
# MKN-45 = assay: cells; format: functional, cell-based; conditions: Homo sapiens;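 also: growth inhibition of human MKN-45 cells, measured with a cell viability assay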
# Description: SANGER: Inhibition of human MKN45 cell growth in a cell viability assay.
structure (smiles),measurement,setting,value
CN(C)CCOc1ccc(-c2nc(-c3ccncc3)c(-c3ccc4c(c3)CC/C4=N\O)[nH]2)cc1 [SB590885],IC50,S-117,> 5 µM
same,IC50,CAL-62,> 5 µM
same,IC50,SW1088,> 5 µM
same,IC50,CAL-54,> 5 µM
same,IC50,NCI-H1651,> 5 µM
same,IC50,Hs-578T,> 5 µM
same,IC50,G-401,> 5 µM
same,IC50,SW1463,> 5 µM
same,IC50,NB12,> 5 µM
same,IC50,BFTC-909,> 5 µM
same,IC50,ASPC1,> 5 µM
same,IC50,HCC1395,> 5 µM
same,IC50,HCC1937,> 5 µM
same,IC50,M059J,> 5 µM
same,IC50,MDA-MB-175-VII,> 5 µM
same,IC50,COLO-680N,> 5 µM
same,IC50,MDA-MB-157,> 5 µM
same,IC50,U2OS,> 5 µM
same,IC50,AN3-CA,> 5 µM
same,IC50,NY,> 5 µM
same,IC50,OVCAR-5,> 5 µM
same,IC50,ChaGo-K-1,> 5 µM
same,IC50,IGROV-1,> 5 µM
same,IC50,NCI-H810,> 5 µM
same,IC50,CAL-120,> 5 µM
same,IC50,SNU-387,> 5 µM
same,IC50,NCI-H2170,> 5 µM
same,IC50,NCI-H1793,> 5 µM
same,IC50,DoTc2-4510,> 5 µM
same,IC50,CP50-MEL-B,1.73 µM
same,IC50,RO82-W-1,> 5 µM
same,IC50,RT-112,> 5 µM
same,IC50,NCI-H650,> 5 µM
same,IC50,HCC1806,> 5 µM
same,IC50,OAW-42,> 5 µM
same,IC50,SiHa,> 5 µM
same,IC50,NCI-H2052,> 5 µM
same,IC50,NCI-H630,> 5 µM
same,IC50,NCI-H1993,> 5 µM
same,IC50,PANC-03-27,> 5 µM
CCCCCCCCCCCC1=C(O)C(=O)C=C(O)C1=O [EMBELIN],IC50,S-117,3.63 µM
same,IC50,CAL-62,23.3 µM
same,IC50,THP-1,29.8 µM
same,IC50,SW1088,16.7 µM
same,IC50,EHEB,> 32 µM
same,IC50,MC-CAR,4.58 µM
same,IC50,CAL-54,20.4 µM
same,IC50,NCI-H1651,5.98 µM
same,IC50,Hs-578T,11.1 µM
same,IC50,TUR,> 32 µM
same,IC50,G-401,8.32 µM
same,IC50,RPMI-6666,8.67 µM
same,IC50,SW1463,> 32 µM
same,IC50,NB12,8.23 µM
same,IC50,LB373-MEL-D,24.2 µM
same,IC50,BFTC-909,> 32 µM
same,IC50,ASPC1,> 32 µM
same,IC50,HCC1395,> 32 µM
same,IC50,HCC1937,8.63 µM
same,IC50,DMS-153,> 32 µM
same,IC50,M059J,13.1 µM
same,IC50,MDA-MB-175-VII,> 32 µM
same,IC50,LU-165,> 32 µM
same,IC50,COLO-680N,19.4 µM
same,IC50,MDA-MB-157,6.88 µM
same,IC50,NCI-H2171,> 32 µM
same,IC50,U2OS,> 32 µM
same,IC50,AN3-CA,6.25 µM
same,IC50,NY,4.8 µM
same,IC50,WSU-NHL,13.6 µM
same,IC50,MFH-ino,5.58 µM
same,IC50,OVCAR-5,> 32 µM
same,IC50,ChaGo-K-1,7.08 µM
same,IC50,IGROV-1,5.64 µM
same,IC50,IMR-5,> 32 µM
same,IC50,NCI-H810,7.73 µM
same,IC50,CAL-120,24 µM
same,IC50,CAL-148,> 32 µM
same,IC50,SNU-387,27.2 µM
same,IC50,NCI-H2170,12.1 µM
same,IC50,NCI-H524,> 32 µM
same,IC50,MKN-1,12.3 µM
same,IC50,NCI-H1793,> 32 µM
same,IC50,DoTc2-4510,14.2 µM
same,IC50,CP50-MEL-B,> 32 µM
same,IC50,SCLC-21H,> 32 µM
same,IC50,RO82-W-1,> 32 µM
same,IC50,RT-112,12.6 µM
same,IC50,NCI-H650,16.4 µM
same,IC50,IM-9,> 32 µM
same,IC50,HCC1806,> 32 µM
same,IC50,OAW-42,> 32 µM
same,IC50,D-542MG,3.13 µM
same,IC50,SiHa,> 32 µM
same,IC50,NCI-H2052,8.53 µM
same,IC50,MKN-45,7.98 µM
same,IC50,NCI-H1993,> 32 µM
same,IC50,PANC-03-27,> 32 µM
CS(=O)(=O)N1CCN(Cc2cc3nc(-c4cccc5[nH]ncc45)nc(N4CCOCC4)c3s2)CC1 [PICTILISIB],IC50,S-117,> 4 µM
same,IC50,CAL-62,> 4 µM
same,IC50,SW1088,2.49 µM
same,IC50,CAL-54,1.07 µM
same,IC50,NCI-H1651,> 4 µM
same,IC50,Hs-578T,1.2 µM
same,IC50,G-401,1.62 µM
same,IC50,SW1463,> 4 µM
same,IC50,NB12,2.85 µM
same,IC50,BFTC-909,1.43 µM
same,IC50,ASPC1,> 4 µM
same,IC50,HCC1395,> 4 µM
same,IC50,HCC1937,> 4 µM
same,IC50,M059J,> 4 µM
same,IC50,MDA-MB-175-VII,0.353 µM
same,IC50,COLO-680N,> 4 µM
same,IC50,MDA-MB-157,2.82 µM
same,IC50,U2OS,3.14 µM
same,IC50,AN3-CA,0.34 µM
same,IC50,NY,> 4 µM
same,IC50,OVCAR-5,0.94 µM
same,IC50,ChaGo-K-1,> 4 µM
same,IC50,IGROV-1,0.634 µM
same,IC50,NCI-H810,> 4 µM
same,IC50,CAL-120,> 4 µM
same,IC50,SNU-387,3.16 µM
same,IC50,NCI-H2170,> 4 µM
same,IC50,MKN-1,> 4 µM
same,IC50,NCI-H1793,> 4 µM
same,IC50,DoTc2-4510,> 4 µM
same,IC50,CP50-MEL-B,> 4 µM
same,IC50,RO82-W-1,> 4 µM
same,IC50,RT-112,> 4 µM
same,IC50,NCI-H650,> 4 µM
same,IC50,HCC1806,> 4 µM
same,IC50,OAW-42,0.872 µM
same,IC50,SiHa,> 4 µM
same,IC50,NCI-H2052,> 4 µM
same,IC50,NCI-H630,> 4 µM
same,IC50,NCI-H1993,> 4 µM
same,IC50,PANC-03-27,1.51 µM
